The source of these data is paper PMC9529094, “Identification of natural cytochalasins as leads for neglected tropical diseases drug discovery” (PLoS ONE, 2022).

Read-outs that look alike come from different tables or passages of the source.

In general, inhibition refers to the share of the control response that was lost under treatment. The term CC50 denotes the concentration giving 50% cytotoxicity. Usually IC50 stands for the concentration that inhibits the measured activity by half.

The nature of series [1]: in vitro. It counts as in vitro ADME. The following applies: PAMPA; donor pH 6.5, acceptor pH 7.4, 5 h, 37°C; read-out: PAMPA permeability Mean Pe. The protocol:
A parallel artificial membrane permeability assay was performed in a 96-well precoated PAMPA plate system (Corning Gentest # 353015). The compound solutions were prepared by diluting the stock solutions (10 mM) in phosphate-buffered saline (PBS) pH 6.5 at a final concentration of 10 μM and then added to the donor portion of the plate (300 μl/well), while PBS pH 7.4 (200 μl/well) was added to the acceptor portion, and the DMSO concentration was lower than 1%. The two portions of the plate were then coupled, and the system was incubated for 5 h at 37°C. Samples of the initial donor solution (T0) were collected and stored at -20°C. At the end of the incubation, samples were collected from the donor and acceptor plates and then added to plates containing quench solution (10% water and 90% methanol:acetonitrile (50:50) + 50 nM tolbutamide). The T0 samples were treated similarly. The final concentrations of compounds in the donor, acceptor and T0 wells were quantified by LC-MS/MS (liquid chromatography-tandem mass spectrometry) Prominence UFLC (Shimadzu Corporation, Kyoto, Japan) and interfaced with an LCMS-8045 triple quadrupole mass spectrometer (Shimadzu Corporation, Kyoto, Japan) with an electrospray ionization source (ESI). The chromatogram for analysis was obtained on a Supelco Ascentis express C18 column (3 cm x 2.1 mm, 5 μM). The mobile phases consisted of water + 0.1% formic acid (A) and acetonitrile + 0.1% formic acid (B). The mobile phase was eluted in binary gradient mode, and the gradient was as follows: 0 min, 95% A; 0.05 mins. 95% A; 0.3 mins: 2% A; 0.7 mins: 2% A; 0.8 mins: 95% A; 1.15 mins 95% A; and 2.0 mins 95% A. The run time was 2 minutes, the sample injection volume was 10 μL, and the flow rate was 0.7 mL/min. The results were used to calculate an effective permeability (Pe) value.
(In general: PAMPA measures passive passage across an artificial lipid membrane.)

Series [2] has as its system T. cruzi. The series is described as follows: Screening of natural product collection against T. cruzi (cell infection assay). Format: cell-based. The following applies: Trypanosoma cruzi; compound concentration of 50 μM. The method, then: (§1) A screening of a natural product collection was performed by using cell assays for infection with Trypanosoma cruzi and Leishmania infantum. The collection includes 320 compounds from the metabolic classes terpenes, alkaloids, peptides and amides that were isolated by plant species or endophytic fungi. For further evaluation in this study, cytochalasins A-D (CAS numbers: CytA: 14110-64-6, CytB: 14930-96-2, CytC: 22144-76-9, CytD: 22144-77-0) were obtained from Sigma-Aldrich (St. Louis, MO, USA). The purity of these compounds was ≥97%. The stock solution of the compounds was prepared in 100% DMSO (dimethyl sulfoxide—Sigma-Aldrich).

Series [3] in a line: in vitro. Format: cell-based. Particulars: human; 72 h, resazurin; read-out: THP-1 CC50 (μM ± SD). The protocol:
THP-1 (human monocyte cell line) cells were cultivated in RPMI medium supplemented with 10% foetal calf serum (FCS) (Cultilab, Campinas, SP, BR) and 1% penicillin and streptomycin (pen/strep—Sigma-Aldrich) at 37°C under 5% CO2, and HFF-1 (human fibroblast) and HepG2 (hepatocytes) cells were cultivated in DMEM without phenol red (Cultilab) supplemented with 10% FBS (Sigma-Aldrich) and 1% pen/strep at 37°C under 5% CO2.
THP-1 cells were seeded at 2x10^4/well in 96-well culture plates in RPMI 1640 supplemented (10% FCS, 1% pen/strep) and incubated overnight (37°C, 5% CO2). The compounds were added in 2-fold serial dilutions (64–0.12 μM), and the plates were incubated as described before. Each compound concentration was evaluated in duplicate. All the plates included DOX (Sigma-Aldrich) as a positive control (10–0.01 μM) and untreated wells as a negative control (100% growth). After 72 h, 20 μL of resazurin (Sigma-Aldrich) was added, and the plates were incubated for 4 h. The absorbance was measured at 536 and 588 nm in an automated microplate reader SpectraMax Gemini, and the data were analysed using GraphPad Prism version 8.0 for CC50 value calculation. The percentage of nonviable cells was determined and compared to the negative control wells (100% growth).
(Alamar Blue is a resazurin reagent that responds to reducing activity.)

Series [4] has as its system intracellular L. infantum amastigotes. The series is described as follows: microbe, parasite or virus in culture. Format: cell-based, Leishmania infantum. Particulars: for IC50: intracellular amastigotes in THP-1 macrophages, 120 h, read-out: L. infantum IC50 (μM ± SD); for SI^2 (CC50 THP-1/IC50 L. infantum) / SI^4 (CC50 HepG2/IC50 L. infantum): selectivity index. The method, then: The epimastigote forms of the T. cruzi Tulahuen strain, which expresses the E. coli β-galactosidase gene lacZ [11], were grown in liver infusion tryptone (LIT) supplemented with 10% FCS (Cultilab) and 1% pen/strep (Sigma–Aldrich) at 28°C. Metacyclogenesis from epimastigotes to trypomastigotes was induced by the incubation of the epimastigotes in Grace’s insect medium (Sigma-Aldrich, 28°C) every 5 days. After 5 days, the trypomastigote forms were used to infect the HFF-1 cells. The promastigote forms of L. infantum were maintained in Schneider’s insect medium (Sigma-Aldrich) supplemented with 10% FCS (Cultilab) and 1% pen/strep (Sigma-Aldrich) at 28°C and subcultured every 6 or 7 days.
In the intracellular amastigote assay, THP-1 cells were seeded at 2x10^4/well (RPMI-1640, 100 μL) with phorbol 12-myristate 13-acetate (PMA) at 20 ng/mL for differentiation into macrophages. After incubation for 72 h (5% CO2, 37°C), the medium was aspirated, and late-stage L. infantum promastigotes were added (2x10^5/well, 100 μL). Following 24 h of incubation, the medium was aspirated to clear extracellular parasites, and the compounds were added in serial dilutions (2-fold) to final concentrations of 64–0.12 μM. The plates included negative controls (100% growth) and MIL (64–0.12 μM) as a positive control. After 120 h of incubation, the medium was removed, and the cells were fixed in methanol and stained with Giemsa. The average number of intracellular amastigotes per THP-1-cell was determined using an inverted microscope and a cell counter. Growth inhibition is expressed as a percentage of the average number of amastigotes per macrophage in the negative control wells. The IC50 values were obtained using GraphPad Prism version 8.0.
The analyses were performed using GraphPad Prism version 8.0 (GraphPad Software, San Diego, CA, USA). Both the IC50 and CC50 values were calculated by adjusting the sigmoid dose-response curves, and the selectivity index (SI) values were determined by CC50/IC50 [16]. Statistical analyses were performed using one-way ANOVA followed by Dunnett’s multiple comparison test.

Series [5] concerns L. infantum. The series is described as follows: Screening of natural product collection against L. infantum (cell infection assay). Format: cell-based. Particulars: Leishmania infantum; compound concentration of 50 μM. The protocol: as §1
The mark [6] stands for this setting: Leishmania infantum, THP-1, 120 h.

Regarding `C=C1[C@@H](C)[C@H]2[C@H](Cc3ccccc3)NC(=O)[C@]23OC(=O)/C=C/C(=O)CCC[C@@H](C)C/C=C/[C@H]3[C@@H]1O` [Cytochalasin A], the Papp in series [1] turned out to be 27.1 ± 2.37 ×10⁻⁶ cm/s. Moreover, the values for the inhibition at 50 µM in series [2] and in series [5] were 99.7% and 100%, respectively. Further, the CC50 in series [3] came to 17 ± 1.34 µM. The IC50 in series [4] (setting [6]) is 2.76 ± 1.17 µM. The “SI^2 (CC50 THP-1/IC50 L. infantum)” value in series [4] worked out at 6.17. The “SI^4 (CC50 HepG2/IC50 L. infantum)” value in series [4] turned out to be 7.65.

With `C=C1[C@@H](C)[C@H]2[C@H](Cc3ccccc3)NC(=O)[C@]23OC(=O)/C=C/[C@H](O)CCC[C@@H](C)C/C=C/[C@H]3[C@@H]1O` [Cytochalasin B], in series [1], the Papp was 15.8 ± 0.31 ×10⁻⁶ cm/s. Moreover, the inhibition at 50 µM in series [2] was determined as 79.4%; in series [5], 57.7%. Moreover, the CC50 in series [3] worked out at 109 ± 2.4 µM. In addition, the IC50 in series [4] (setting [6]) is 22 to 23 µM; in series [4], 23.9 ± 3.02 µM. Besides, the “SI^2 (CC50 THP-1/IC50 L. infantum)” value in series [4] came to 4.57. For the same compound, the “SI^4 (CC50 HepG2/IC50 L. infantum)” value in series [4] is listed as 1.93.

`CC(=O)OC1C=CC(C)(O)C(=O)C(C)CC=CC2C(O)C(C)=C(C)C3C(Cc4ccccc4)NC(=O)C123` (centres unmarked) [Cytochalasin C]: the Papp in series [1] was found to be 14.8 ± 3.28 ×10⁻⁶ cm/s. Further, testing at 50 µM in series [2] gave an inhibition of 72.8%. Also, the CC50 in series [3] came out at 84.8 ± 6.84 µM. Also, in series [4] (setting [6]), the IC50 is 23.2 ± 4.9 µM. Besides, in series [4], the “SI^2 (CC50 THP-1/IC50 L. infantum)” value was determined as 3.65 and the “SI^4 (CC50 HepG2/IC50 L. infantum)” value turned out to be 0.96. The inhibition at 50 µM in series [5] was 58.5%.

`C=C1[C@@H](C)[C@H]2[C@H](Cc3ccccc3)NC(=O)[C@]23[C@H](OC(C)=O)/C=C/[C@@](C)(O)C(=O)[C@@H](C)C/C=C/[C@H]3[C@@H]1O` [Cytochalasin D]: the Papp in series [1] stood at 8.74 ± 0.64 ×10⁻⁶ cm/s. The inhibition at 50 µM in series [2] came to 69.5%. The CC50 in series [3] worked out at 122 ± 11.3 µM. Besides, the IC50 in series [4] (setting [6]) came out at 22.5 ± 0.97 µM. For the same compound, in series [4], the “SI^2 (CC50 THP-1/IC50 L. infantum)” value is 5.42 and the “SI^4 (CC50 HepG2/IC50 L. infantum)” value was 5.46. Further, in series [5], the inhibition at 50 µM amounted to 64.9%.
